Series [1] deals with microorganisms that decompose organic matter (bacteria/fungi). Kind of series: Culture of microorganisms that decompose organic matter. The class given is cell-based. Conditions: for concentration in culture medium at which microorganisms multiply strongly: microorganisms that decompose organic matter (bacteria/fungi).
Series [2] deals with pathogenic microorganisms. Kind of series: Inhibition/killing of pathogenic microorganisms in water with Boraras Micros fish infected from dead fish. The class given is in vivo.
The nature of series [3]: Metallic Cu suspension test with 1% Na ascorbate (Cu ion complex formation). The class given is physicochemical. As to conditions: with 0.1% CuCl2; excess 1% Na ascorbate. The text has this:
In an environment containing water in the body of organisms/host bodies (host is animal/human) such as in blood/tissue fluid/alveolar fluid/intracellular fluid . . . ) in conditions where the body is depleted of chelators with [Zn ions/other transition metal ions]-holding (such as the amount of chelators with [Zn ions/other transition metal ions]-holding remains is not significant in the patient's body), Cu ions will attach to [Fe ions in metalloproteins of [host cells/red blood cells/alveolar cells], causing these cells to lose the ability to exchange O2, causing symptoms of acute respiratory failure (not due to lung infection), and this symptom is very dangerous because it can quickly lead to death. Among the bond forces between Cu ions and other metal ions, the bond force of the Cu ion-Fe ion complex is the strongest, can recognize the existence of Cu ion-ion Fe ion complex/Cu ion-Zn ion complex/Cu ion-Mg ion complex/Cu ion-Ca ion complex, and can recognize Cu ion-other metal ion bonds, in which the Cu ion-Fe ion bond is the bond type with the highest magnitude through experiments conducted in water environment (water environment without chelators with [Zn ions/other transition metal ions]-holding) is the environment that simulates the blood environment/alveolar fluid environment of a host with the depletion of these chelators), these experiments were performed by adding an excess amount of 1% Na ascorbate solution to the test tube containing the solution with [0.1 % CuCl2+greater than 0.2% FeCl3]/the test tube containing the solution containing [0.1 % CuCl2+greater than 0.6% ZnCl2]/the test tube containing the solution containing [0.1 % CuCl2+greater than 0.63% MgCl2]/the test tube containing the solution conatining [0 .

Experiment in series [4]: as above
The class given is physicochemical. As to conditions: 0.1% CuCl2, alone or with several percent of chelator; excess 1% Na ascorbate.

In series [5] the test system is Boraras Micros fish. As to conditions: for toxicity / safety to host cells: in words, from fish experiments; for time to death of fish: 300 ppm EDTA disodium, 800 ppm EDTA Na; for death of fish: 1000 ppm Na2 EDTA / 0.5 ppm CuCl2 / [0.3 ppm CuCl2+20 ppm ZnCl2].
Series [6] is classed as physicochemical, animal/human blood. Conditions: for volume that completely dissolves Zn-blood complex suspension: suspension from 1.4 ml 0.1% ZnCl2 in 100 ml 0.9% NaCl with 1% blood; for amount needed to completely dissolve Zn-blood complex suspension, compared with lysine phosphate/lysine chloride/arginine phosphate/arginine chloride: suspension with 2 ppm ZnCl2.
Series [7] deals with sweet taste on the tongue. Kind of series: Loss and recovery of sweet taste after Zn gluconate. In kind it is in vivo, human. Conditions: for recovery of sweet taste: 5% arginine glutamate / 0.5% triethylenetetramine glutamate, 10 seconds.
The test system of series [8] is symptoms such as sore throat/cough/headache. Kind of series: Symptoms generated by ZnCl2 in the throat and their relief. In kind it is in vivo, human. As to conditions: for disappearance of ZnCl2-induced symptoms: few ml of 10% solution, oral.
Series [9] has as its system Boraras Micros fish. Kind of series: Protection of Boraras Micros fish from CuCl2 by chelators. In kind it is in vivo. As to conditions: 0.4 ppm CuCl2 + a few ppm to more than 10 ppm of chelator.
A short description of series [10]: Voltage of metallic Zn-metallic Cu electrode pair in test tube. As to conditions: 0.9% NaCl+0.2 ppm CuCl2+0.4 ppm ZnCl2+0.6 FeCl3. In kind it is physicochemical.
Series [11] concerns mice. The class given is in vivo, mouse. As to conditions: fed rat poison pills, normal water (control).
The mark [12] stands for this setting: 10 ppm Ampicillin / 20 ppm Bactrim / 100 ppm triethylenetetramine diethylenetriaminepentaacetate / 300 Mg EDTA / 600 ppm Ca EDTA / combinations as in label.
[13] abbreviates: 20 ppm Ampicillin / 40 ppm Bactrim.

31 compounds from US20260294964A1, “PHARMACEUTICALS CONTAINING CHELATORS WITH STRONG ZN IONS-HOLDING FEATURE FOR THE TREATMENT OF SYMPTOMS AND DISEASES CAUSED BY MICROORGANISMS/DISEASES CAUSED BY TOXINS OR NEUROTOXINS/CANCER/SEVERAL SYNDROMES” (priority 2023, published 2026) can be followed below.

Read-outs that look alike come from different tables or passages of the source. A value given as a limit tells only on which side of the number the result lay.

`CC1(C)S[C@@H]2[C@H](NC(=O)[C@H](N)c3ccccc3)C(=O)N2[C@H]1C(=O)O` [Ampicillin, reference compound]: the “inhibition of proliferation of microorganisms” value in series [1] (20 ppm Bactrim / 10 ppm Ampicillin, first 36 hours) is “slightly inhibited”. In [2] (setting [12]), the “appearance of water after 6 days” value is recorded as “cloudy”; the “fish outcome after 6 days” value is “died and all of fishes died”. Moreover, in series [2] (setting [13]), the “appearance of water after 6 days” value is recorded as “cloudy”; the “fish outcome after 6 days” value was “died and all of fishes died”.
With `[Ca+2].[Cl-].[Cl-]` [CaCl2], the “concentration of second metal salt at which metallic Cu suspension will not appear” value in [3] is given as “greater than 0.65%”.
Regarding `[Cl][Cu][Cl]` [CuCl2], the “appearance of metallic Cu suspension” value in series [4] was “metallic Cu suspension will appear”. In series [5] (0.4 ppm CuCl2), the “death of fish in CuCl2” value is “dying after a few hours”.
`O=C([O-])CN(CCN(CC(=O)O)CC(=O)O)CC(=O)[O-].[K+].[K+]` [EDTA dipotassium]: the “toxicity / safety to host cells” value in [5] was “toxic to host cells”.
Turning to `O=C([O-])CN(CCN(CC(=O)[O-])CC(=O)O)CC(=O)O.[Na+].[Na+]` [EDTA disodium], in [5], the “time to death of fish” value is reported as “less than 24 hours”, the death of fish result was “died within a few hours” and the “toxicity / safety to host cells” value was “quite toxic to host cells”. Further, in [5] (listed as 2 Na EDTA), the death of fish result is recorded as “died in a few hours”. The “toxicity / safety to host cells” value in [5] (listed as disodium EDTA) is “highly toxic to healthy cells”.
`[Cl][Fe]([Cl])[Cl]` [FeCl3]: the “concentration of second metal salt at which metallic Cu suspension will not appear” value in series [3] is “greater than 0.2%”. For the same compound, the “volume that completely dissolves Zn-blood complex suspension” value in [6] (0.1% solution) is 6 mL.
Turning to `[Cl-].[Cl-].[Mg+2]` [MgCl2], in series [3], the “concentration of second metal salt at which metallic Cu suspension will not appear” value is recorded as “greater than 0.63%”.
Turning to `O=C([O-])c1cc(O)c(O)c(O)c1.[Na+]` [Na gallate], the “concentration in culture medium at which microorganisms multiply strongly” value (“concentration in culture medium” for short) in series [1] is 5 ppm.
For `CN(C)C1CSSC1` [Nereistoxin], in series [5] (in vivo), the “time to death of fish, toxin alone” value was 30 min.
`O=C([O-])[C@H](O)[C@@H](O)[C@H](O)[C@H](O)CO.O=C([O-])[C@H](O)[C@@H](O)[C@H](O)[C@H](O)CO.[Zn+2]` [Zn gluconate]: the “sweet taste sensation after Zn” value in [7] (chewing and sucking 15 mg tablet, 120 seconds) is “completely lost”.
Regarding `[Cl-].[Cl-].[Zn+2]` [ZnCl2], the “concentration in culture medium” value in series [1] was determined as 12 ppm. Further, in series [6] (0.01% blood), the “ZnCl2 concentration above which Zn-blood suspension begins to appear” value was “above 1.5 ppm” and the “ZnCl2 concentration at which suspension appears abundantly” value is 2 ppm. For the same compound, the “volume of 0.1% ZnCl2 solution at which Zn-blood complex suspension begins to appear” value in [6] (100 ml of 0.9% NaCl with 1% blood) is 1.4 mL. Moreover, in [8] (2 ml of 0.4% ZnCl2 solution, 120 seconds), the “appearance of symptoms (itchy throat/sore throat/cough/runny nose/body aches/slight fever/headache)” value is recorded as “appear after a few minutes to a few hours”.
For `N=C(N)NCCC[C@H](N)C(=O)O.O=P(O)(O)O` [arginine phosphate], the “survival of fish in CuCl2 with chelator” value in series [9] is on record as “will not die after several weeks”. In addition, the “volume that completely dissolves Zn-blood complex suspension” value in [6] (10% solution) worked out at 2 mL. In [6] (synthetic: upper end printed 'more than 200 units'), the “units of [Zn ions/other transition metal ions] held by one unit of chelator” value is recorded as “one unit (or few units)”. In addition, the “amount used to sharply reduce the voltage, compared with EDTA Mg/triethylenetetramine glutamate/triethylenetetramine diethylenetriaminepentaacetate” value in [10] is “dozens of times greater”.
For the compound `N=C(N)NCCC[C@H](N)C(=O)O` [arginine, reference compound], the “appearance of metallic Cu suspension” value in [4] is reported as “metallic Cu suspension will not appear”.
As for `O=C([O-])CC(O)(CC(=O)[O-])C(=O)[O-].[Na+].[Na+].[Na+]` [citrate Na, Na citrate], the “concentration in culture medium” value in series [1] is reported as 80 ppm.
Take `O=c1oc2ccccc2c(O)c1C1CC(c2ccc(OCc3ccc(C(F)(F)F)cc3)cc2)Cc2ccccc21` (stereo not shown) [flocoumafen, reference compound]: the “time to death of all mice” value in series [11] is on record as “about 2 days”. Also, the “time to death of fish, toxin alone” value in [5] (1.25 ppm flocoumafen / 0.3 ppm Bromadiolone / 0.2 ppm Methylamine Avermectin) came to 2160 min.
`NCCCC[C@H](N)C(=O)O.O=P(O)(O)O` [lysine phosphate, reference compound]: the “survival of fish in CuCl2 with chelator” value in series [9] is listed as “will not die after several weeks”.
For `NCCCC[C@H](N)C(=O)O` [lysine, reference compound], in [4], the “appearance of metallic Cu suspension” value is “metallic Cu suspension will not appear”.
Regarding `O=C([O-])CC(O)C(=O)[O-].[Na+].[Na+]` (stereo not shown) [malate Na, Na malate], the “concentration in culture medium” value in series [1] is listed as 80 ppm.
As to `O=C([O-])CCC(=O)[O-].[Na+].[Na+]` [succinate Na, Na succinate], the “concentration in culture medium” value in series [1] was found to be 80 ppm.
Turning to `NCCNCCNCCN` [triethylenetetramine, Triethylenetetramine, reference compound], the “appearance of metallic Cu suspension” value in series [4] is reported as “metallic Cu suspension will not appear”.
As to “Diethylenetriaminepentaacetic acid calcium [Ca DTPA]”, the “survival of fish in CuCl2 with chelator” value in series [9] is given as “will not die after several weeks”. The “toxicity / safety to host cells” value in [5] was “highly safe”.
For “Diethylenetriaminepentaacetic acid magnesium [Mg DTPA]”, the “appearance of metallic Cu suspension” value in [4] is given as “metallic Cu suspension will not appear”. Besides, the “survival of fish in CuCl2 with chelator” value in series [9] is on record as “will not die after several weeks”.
With EDTA Na, the “time to death of fish” value in series [5] was no more than 24 h.
As to Na tannate Na, in [1], the “concentration in culture medium” value is given as 30 ppm.
Regarding arginine ascorbate, the “volume that completely dissolves Zn-blood complex suspension” value in [6] (concentration of solution not given) came to 0.7 mL.
On to arginine glutamate, for which the “recovery of sweet taste” value in [7] was “fully recovered”. Besides, in series [6] (10% solution), the “volume that completely dissolves Zn-blood complex suspension” value turned out to be 1.0 mL. In addition, the “amount used to sharply reduce the voltage, compared with EDTA Mg/triethylenetetramine glutamate/triethylenetetramine diethylenetriaminepentaacetate” value in series [10] is reported as “dozens of times greater”.
As to “pentaethylenehexamine diethylenetriaminepentaacetate”, the “amount needed to completely dissolve Zn-blood complex suspension, compared with lysine phosphate/lysine chloride/arginine phosphate/arginine chloride” value in series [6] is on record as “tens to hundreds of times lower”.
For the compound “tetraethylenepentamine diethylenetriaminepentaacetate”, the “amount needed to completely dissolve Zn-blood complex suspension, compared with lysine phosphate/lysine chloride/arginine phosphate/arginine chloride” value in series [6] is “tens to hundreds of times lower”.
For the compound triethylenetetramine ascorbate, the “disappearance of ZnCl2-induced symptoms” value in [8] was “gradually disappear after a few hours”.
On to triethylenetetramine gluconate, for which the “amount needed to completely dissolve Zn-blood complex suspension, compared with lysine phosphate/lysine chloride/arginine phosphate/arginine chloride” value in series [6] is on record as “tens to hundreds of times lower”.
Consider triethylenetetramine glutamate, for which the “appearance of metallic Cu suspension” value in series [4] is “metallic Cu suspension will not appear”. Besides, the “recovery of sweet taste” value in [7] is “fully recovered”. Further, the “disappearance of ZnCl2-induced symptoms” value in series [8] was “gradually disappear after a few hours”.
